pIC50: −log10 of the molar value.
Tests used:
Assay type in all cases: binding
[1] = molecular target: human MDM4 protein (amino acids 2-185) (Homo sapiens (Human), UniProt O15151); assay: TR-FRET assay, p53-MDM4 Assay 1; conditions: 2.5 nM MDM4-biotinylated, 10 nM Cy5-p53 peptide
Experimental: (§1) The inhibition of p53-MDM2 and p53-MDM4 interactions is measured by time resolved fluorescence energy transfer (TR-FRET). Fluorescence energy transfer (or Foerster resonance energy transfer) describes an energy transfer between donor and acceptor fluorescent molecules. For this assay, human MDM2 protein (amino acids 2-188) and human MDM4 protein (amino acids 2-185), tagged with a C-terminal biotin moiety, are used in combination with a Europium labeled streptavidin (Perkin Elmer, Inc., Waltham, Mass., USA) serving as the donor fluorophore. The p53 derived, Cy5 labeled peptide Cy5-TFSDLWKLL (p53 aa18-26) is the energy acceptor. Upon excitation of the donor molecule at 340 nm, binding interaction between MDM2 or MDM4 and the p53 peptide induces energy transfer and enhanced response at the acceptor emission wavelength at 665 nm. Disruption of the formation of the p53-MDM2 or p53-MDM4 complex due to an inhibitor molecule binding to the p53 binding site of MDM2 or MDM4 results in increased donor emission at 620 nm. The ratiometric FRET assay readout is calculated from the raw data of the two distinct fluorescence signals measured in time resolved mode (fluorescence 665 nm/fluorescence 620 nm×1000).
(§2) After addition of 1.25 nM MDM2-biotinylated or 2.5 nM MDM4-biotinylated (internal preparations), and 0.625 nM Europium labeled streptavidin (Perkin Elmer), the solution is pre-incubated for 15 minutes at room temperature, then 10 nM Cy5-p53 peptide (internal preparation) is added before an incubation at room temperature for 15 minutes prior to reading the plate. For measurement of samples, a Victor II microplate reader (Perkin Elmer) is used with the following settings: Excitation 340 nm, Emission Donor 620 nm and Emission Acceptor 665 nm. IC50 values are calculated by curve fitting using XLfit. If not specified, reagents are purchased from Sigma-Aldrich Chemie GmBH, Buchs, Switzerland.
(§3) This assay was used to evaluate compounds displaying inhibition of p53-MDM2 interaction and p53-MDM4 interaction at IC50s of 0.005 to 50 μM (p53-MDM2 Assay 1 and p53-MDM4 Assay 1, respectively). For selected compounds displaying IC50s between […] on MDM2, a slightly modified assay is used with the following adaptations: 0.1 nM MDM2, 0.1 nM Europium labeled streptavidin and Tecan genios Pro is used as a microplate reader for the fluorescence measurements (p53-MDM2 Assay 2).

[2] = molecular target: T1, human MDM2 protein (amino acids 2-188) (Homo sapiens (Human), UniProt Q00987); assay: TR-FRET assay, p53-MDM2 Assay 1; conditions: 1.25 nM MDM2-biotinylated, 10 nM Cy5-p53 peptide
T1 sequence (Q00987 2-188): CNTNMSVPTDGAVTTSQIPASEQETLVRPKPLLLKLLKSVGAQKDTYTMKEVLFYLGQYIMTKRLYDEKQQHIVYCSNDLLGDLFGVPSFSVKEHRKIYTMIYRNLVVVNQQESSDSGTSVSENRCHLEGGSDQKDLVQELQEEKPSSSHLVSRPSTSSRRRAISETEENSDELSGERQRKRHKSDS
Experimental: as §1, §2, §3

[3] = molecular target: T1, human MDM2 protein (amino acids 2-188); assay: TR-FRET assay, p53-MDM2 Assay 2 (modified); conditions: TR-FRET; 0.1 nM MDM2, 0.1 nM Europium labeled streptavidin, Tecan genios Pro reader; read-out: IC50 p53-MDM2 Assay 2
Summary of the method: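 IC50 values were curve-fitted from the time-resolved 665/620 nm emission ratio after 340 nm excitation. The assay combined 0.625 nM europium-streptavidin donor with 1.25 nM C-terminally biotinylated MDM2 2–188 (15 min, RT), followed by 15 min with 10 nM Cy5-labeled p53 18–26 acceptor peptide.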

Chain of human MDM4 protein (amino acids 2-185) (O15151 2-185): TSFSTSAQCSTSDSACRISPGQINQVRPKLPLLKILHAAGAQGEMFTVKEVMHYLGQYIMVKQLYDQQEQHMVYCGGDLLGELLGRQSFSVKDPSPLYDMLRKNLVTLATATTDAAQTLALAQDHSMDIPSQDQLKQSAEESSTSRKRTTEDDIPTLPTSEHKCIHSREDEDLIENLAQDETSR

SMILES | pIC50 [1] | pIC50 [2] | pIC50 [3]
COc1nc(N)ncc1-c1cc2c(n1C(C)C)C(c1ccc(Cl)cc1)N([C@H]1CC[C@H](O)CC1)C2=O (stereo partly drawn) [Example 68, 2-(2-Amino-4-methoxy-pyrimidin-5-yl)-6-(4-chloro-phenyl)-5-(trans-4-hydroxy-cyclohexyl)-1-isopropyl-5,6-dihydro-1H-pyrrolo[3,4-b]pyrrol-4-one] | 5.10 | 7.90 | 7.85
COc1nc(N)ncc1-c1cc2c(n1C(C)C)C(c1ccc(Cl)cc1)N(C1CCOCC1)C2=O (stereo not drawn) [Example 78, 2-(2-Amino-4-methoxy-pyrimidin-5-yl)-6-(4-chloro-phenyl)-1-isopropyl-5-(tetrahydro-pyran-4-yl)-5,6-dihydro-1H-pyrrolo[3,4-b]pyrrol-4-one] | 4.85 | 8.07 | 8.29
COc1ncc(-c2cc3c(n2C(C)C)C(c2ccc(Cl)cc2C)N([C@H]2CC[C@H](O)CC2)C3=O)c(OC)n1 (stereo partly drawn) [Example 103, 6-(4-Chloro-2-methyl-phenyl)-2-(2,4-dimethoxy-pyrimidin-5-yl)-5-(trans-4-hydroxy-cyclohexyl)-1-isopropyl-5,6-dihydro-1H-pyrrolo[3,4-b]pyrrol-4-one] | 5.33 | 7.68 | 7.52
COc1ncc(-c2cc3c(n2C(C)C)C(c2ccc(Cl)cc2C)N(C2CCOCC2)C3=O)c(OC)n1 (stereo not drawn) [Example 105, 6-(4-Chloro-2-methyl-phenyl)-2-(2,4-dimethoxy-pyrimidin-5-yl)-1-isopropyl-5-(tetrahydro-pyran-4-yl)-5,6-dihydro-1H-pyrrolo[3,4-b]pyrrol-4-one] | 5.20 | 7.99 | 7.84
CNC(=O)N1CCC(N2C(=O)c3cc(-c4cnc(OC)nc4OC)n(C(C)C)c3C2c2ccc(Cl)cc2)CC1 (stereo not drawn) [Example 107, 4-[6-(4-Chloro-phenyl)-2-(2,4-dimethoxy-pyrimidin-5-yl)-1-isopropyl-4-oxo-4,6-dihydro-1H-pyrrolo[3,4-b]pyrrol-5-yl]-piperidine-1-carboxylic acid methylamide] | 5.44 | 8.52 | 8.57
COc1nc(N)ncc1-c1cc2c(n1C(C)C)C(c1ccc(Cl)cc1)N(C1CCC(=O)N(C)C1)C2=O (stereo not drawn) [Example 108, 2-(2-Amino-4-methoxy-pyrimidin-5-yl)-6-(4-chloro-phenyl)-1-isopropyl-5-(1-methyl-6-oxo-piperidin-3-yl)-5,6-dihydro-1H-pyrrolo[3,4-b]pyrrol-4-one] | 5.04 | 8.48 | 8.43

More lines, now with the values ahead:

pIC50 [1] | pIC50 [2] | pIC50 [3] | SMILES
6.49 | 8.96 | 9.90 | COc1ccc(C(=O)NOCCO)cc1-c1cc2c(n1C(C)C)C(c1ccc(Cl)cc1)N(c1cc(Cl)ccc1C)C2=O (stereo not drawn) [Example 37, 3-[5-(5-Chloro-2-methyl-phenyl)-6-(4-chloro-phenyl)-1-isopropyl-4-oxo-1,4,5,6-tetrahydro-pyrrolo[3,4-b]pyrrol-2-yl]-N-(2-hydroxy-ethoxy)-4-methoxy-benzamide]
5.06 | 7.91 | 8.31 | COc1ccc(C(=O)O)cc1-c1cc2c(n1C(C)C)C(c1ccc(Cl)cc1)N([C@H]1CC[C@H](O)CC1)C2=O (stereo partly drawn) [Example 65, 3-[6-(4-Chloro-phenyl)-5-(trans-4-hydroxy-cyclohexyl)-1-isopropyl-4-oxo-1,4,5,6-tetrahydro-pyrrolo[3,4-b]pyrrol-2-yl]-4-methoxy-benzoic acid]
5.52 | 7.57 | 7.50 | COc1ccccc1-c1cc2c(n1C(C)C)C(c1ccc(Cl)cc1C)N([C@H]1CC[C@H](O)CC1)C2=O (stereo partly drawn) [Example 101, 6-(4-Chloro-2-methyl-phenyl)-5-(trans-4-hydroxy-cyclohexyl)-1-isopropyl-2-(2-methoxy-phenyl)-5,6-dihydro-1H-pyrrolo[3,4-b]pyrrol-4-one]
5.62 | 7.90 | 7.87 | CNC(=O)c1ccc(OC)c(-c2cc3c(n2C(C)C)C(c2ccc(Cl)cc2C)N([C@H]2CC[C@H](O)CC2)C3=O)c1 (stereo partly drawn) [Example 102, 3-[6-(4-Chloro-2-methyl-phenyl)-5-(trans-4-hydroxy-cyclohexyl)-1-isopropyl-4-oxo-1,4,5,6-tetrahydro-pyrrolo[3,4-b]pyrrol-2-yl]-4-methoxy-N-methyl-benzamide]
5.98 | 9.22 | 10.06 | COc1ncc(-c2cc3c(n2C(C)C)[C@H](c2ccc(Cl)cc2)N(c2cc(Cl)c(=O)n(C)c2)C3=O)c(OC)n1 [Example 121, (S)-5-(5-Chloro-1-methyl-6-oxo-1,6-dihydro-pyridin-3-yl)-6-(4-chloro-phenyl)-2-(2,4-dimethoxy-pyrimidin-5-yl)-1-isopropyl-5,6-dihydro-1H-pyrrolo[3,4-b]pyrrol-4-one]
6.14 | 9.10 | 9.79 | COc1nc(N(C)C)ncc1-c1cc2c(n1C(C)C)[C@H](c1ccc(C#N)cc1)N(c1cc(Cl)c[nH]c1=O)C2=O [Example 167, 4-[(S)-5-(5-Chloro-2-oxo-1,2-dihydro-pyridin-3-yl)-2-(2-dimethylamino-4-methoxy-pyrimidin-5-yl)-1-isopropyl-4-oxo-1,4,5,6-tetrahydro-pyrrolo[3,4-b]pyrrol-6-yl]-benzonitrile]
